{
  "source": "patent US8247211B2",
  "about": "“Glycopeptide antibiotics” (American Cyanamid Company, priority 2001, dated 2012)",
  "test_in_all_cases": "In vitro antibacterial evaluation: minimum inhibitory concentration (MIC), broth dilution method",
  "type_in_all_cases": "cell-based",
  "key": {"Enterococcus sp.": {"test_system": "Enterococcus sp.", "conditions": "broth dilution, 5×10^5 CFU/mL, 18 hours at 35° C.", "experimental": "(§1) The minimum inhibitory concentration (MIC), the lowest concentration of the antibiotic which inhibits growth of the test organism, is determined by the broth dilution method using Muller-Hinton II […] (Baltimore Biological Laboratories) following the recommendations of the National Committee for Clinical Laboratory Standards [Methods for dilution antimicrobial susceptibility tests for bacteria that grow aerobically, approved standard M7-A2, National Committee for Clinical Laboratory Standards, Villanova, Pa].\n(§2) An inoculum level of 5×10^5 CFU/mL, and a range of antibiotic concentrations (64-0.06 μg/mL) is used. […] The test organisms include a spectrum of Gram-positive bacteria comprised of Staphylococcus sp., Streptococcus sp. and Enterococcus sp. These organisms include recent clinical isolates that are resistant to methicillin, penicillin and/or vancomycin."}, "Escherichia coli": {"test_system": "Escherichia coli", "conditions": "5×10^5 CFU/mL, 18 hours at 35° C.", "experimental": "as §1, §2"}, "Staphylococcus sp.": {"test_system": "Staphylococcus sp.", "conditions": "for MIC Staphylococcus aureus (ATCC 29213): strain ATCC 29213; for MIC Staphylococcus aureus (GC 1131): strain GC 1131; for MIC Staphylococcus aureus (GC 3051): strain GC 3051; for MIC Staphylococcus aureus (GC 3053): strain GC 3053; for MIC Staphylococcus aureus (GC 4541): strain GC 4541; for MIC Staphylococcus aureus (GC 4542): strain GC 4542; for MIC Staphylococcus aureus (GC 4544): strain GC 4544; for MIC Staphylococcus aureus (GC 4545): strain GC 4545", "experimental": "as §1, §2"}, "Streptococcus sp.": {"test_system": "Streptococcus sp.", "conditions": "broth dilution, 5×10^5 CFU/mL, 18 hours at 35° C.", "experimental": "as §1, §2"}, "[1]": {"conditions": "broth dilution, 5×10^5 CFU/mL, 18 hours at 35° C."}, "[2]": {"conditions": "broth dilution, 18 hours at 35° C."}},
  "data": [
    {"compound": "CC(C)=CCCC(C)C1OCC2OC(OC3C(CO)OC(Oc4ccc(CC5NC(=O)C(C(C)c6ccccc6)NC(=O)CNC(=O)C(CO)NC(=O)C(C(O)C6CNC(=N)N6C6OC(CO)C(O)C(O)C6O)NC(=O)C(C(O)C6CNC(=N)N6)NC5=O)cc4)C(O)C3O)C(O)C(O)C2O1", "note": "(stereo not drawn) [Example 125, Cyclo[glycyl-β-methylphenylalanyl-O-[4-O-[4,6-O-[2,6-dimethylhept-5-en-1-yidene)hexopyranosyl]hexopyranosyl]tyrosyl-3-(2-iminoimidazolidin-4-yl)seryl-3-(3-hexopyranosyl-2-iminoimidazolidin-4-yl)serylseryl]]", "values": [
      {"measurement": "MIC Enterococccus avium (GC 4558)", "setting": "Enterococcus sp.", "value": 32, "unit": "µg/mL"},
      {"measurement": "MIC Enterococccus faecalis (ATCC 29212)", "setting": "Enterococcus sp.", "value": 32, "unit": "µg/mL"},
      {"measurement": "MIC Enterococccus faecalis (GC 2691)", "setting": "Enterococcus sp.", "value": 32, "unit": "µg/mL"},
      {"measurement": "MIC Enterococccus faecalis (GC 3059)", "setting": "Enterococcus sp.", "value": 32, "unit": "µg/mL"},
      {"measurement": "MIC Enterococccus faecalis (GC 4552)", "setting": "Enterococcus sp.", "value": 32, "unit": "µg/mL"},
      {"measurement": "MIC Enterococccus faecalis (GC 4553)", "setting": "Enterococcus sp.", "value": 32, "unit": "µg/mL"},
      {"measurement": "MIC Enterococccus faecalis (GC 4554)", "setting": "Enterococcus sp.", "value": 32, "unit": "µg/mL"},
      {"measurement": "MIC Enterococccus faecalis (GC 6189)", "setting": "Enterococcus sp.", "value": 32, "unit": "µg/mL"},
      {"measurement": "MIC Enterococccus faecium (GC 2243)", "setting": "Enterococcus sp.", "value": 32, "unit": "µg/mL"},
      {"measurement": "MIC Enterococccus faecium (GC 4556)", "setting": "Enterococcus sp.", "value": 32, "unit": "µg/mL"},
      {"measurement": "MIC Enterococccus faecium (GC 4557)", "setting": "Enterococcus sp.", "value": 16, "unit": "µg/mL"},
      {"measurement": "MIC Enterococcus faecalis (GC 2242)", "setting": "Enterococcus sp.", "value": 32, "unit": "µg/mL"},
      {"measurement": "MIC Escherichia coli (ATCC 25922)", "setting": "Escherichia coli", "value": ">64", "unit": "µg/mL"},
      {"measurement": "MIC Escherichia coli (GC 4559)", "setting": "Escherichia coli", "value": ">64", "unit": "µg/mL"},
      {"measurement": "MIC Escherichia coli (GC 4560)", "setting": "Escherichia coli", "value": 32, "unit": "µg/mL"},
      {"measurement": "MIC Coagulase Negative Staphylococcus (GC 4547)", "setting": "Staphylococcus sp.; [1]", "value": 32, "unit": "µg/mL"},
      {"measurement": "MIC Coagulase Negative Staphylococcus (GC 4548)", "setting": "Staphylococcus sp.; [1]", "value": 32, "unit": "µg/mL"},
      {"measurement": "MIC Coagulase Negative Staphylococcus (GC 4549)", "setting": "Staphylococcus sp.; [1]", "value": 32, "unit": "µg/mL"},
      {"measurement": "MIC Coagulase Negative Staphylococcus (GC 4551)", "setting": "Staphylococcus sp.; [1]", "value": 32, "unit": "µg/mL"},
      {"measurement": "MIC Coagulase Negative Staphylococcus (GC 6257)", "setting": "Staphylococcus sp.; [1]", "value": 32, "unit": "µg/mL"},
      {"measurement": "MIC Staphylococcus aureus-SMITH (GC 4543)", "setting": "Staphylococcus sp.; [1]", "value": 32, "unit": "µg/mL"},
      {"measurement": "MIC Staphylococcus haemolyticus (GC 4546)", "setting": "Staphylococcus sp.; [1]", "value": 32, "unit": "µg/mL"},
      {"measurement": "MIC Staphylococcus aureus (ATCC 29213)", "setting": "Staphylococcus sp.", "value": 32, "unit": "µg/mL"},
      {"measurement": "MIC Staphylococcus aureus (ATCC 29213)", "setting": "Staphylococcus sp.; [2]", "value": 32, "unit": "µg/mL"},
      {"measurement": "MIC Staphylococcus aureus (GC 1131)", "setting": "Staphylococcus sp.", "value": 32, "unit": "µg/mL"},
      {"measurement": "MIC Staphylococcus aureus (GC 1131)", "setting": "Staphylococcus sp.; [2]", "value": 32, "unit": "µg/mL"},
      {"measurement": "MIC Staphylococcus aureus (GC 3051)", "setting": "Staphylococcus sp.", "value": 32, "unit": "µg/mL"},
      {"measurement": "MIC Staphylococcus aureus (GC 3051)", "setting": "Staphylococcus sp.; [2]", "value": 32, "unit": "µg/mL"},
      {"measurement": "MIC Staphylococcus aureus (GC 3053)", "setting": "Staphylococcus sp.", "value": 32, "unit": "µg/mL"},
      {"measurement": "MIC Staphylococcus aureus (GC 3053)", "setting": "Staphylococcus sp.; [2]", "value": 32, "unit": "µg/mL"},
      {"measurement": "MIC Staphylococcus aureus (GC 4541)", "setting": "Staphylococcus sp.", "value": 8, "unit": "µg/mL"},
      {"measurement": "MIC Staphylococcus aureus (GC 4541)", "setting": "Staphylococcus sp.; [2]", "value": 8, "unit": "µg/mL"},
      {"measurement": "MIC Staphylococcus aureus (GC 4542)", "setting": "Staphylococcus sp.", "value": 32, "unit": "µg/mL"},
      {"measurement": "MIC Staphylococcus aureus (GC 4542)", "setting": "Staphylococcus sp.; [2]", "value": 32, "unit": "µg/mL"},
      {"measurement": "MIC Staphylococcus aureus-SMITH (GC 4543)", "setting": "Staphylococcus sp.; strain GC 4543, broth dilution, 18 hours at 35° C.", "value": 32, "unit": "µg/mL"},
      {"measurement": "MIC Staphylococcus aureus (GC 4544)", "setting": "Staphylococcus sp.", "value": 32, "unit": "µg/mL"},
      {"measurement": "MIC Staphylococcus aureus (GC 4544)", "setting": "Staphylococcus sp.; [2]", "value": 32, "unit": "µg/mL"},
      {"measurement": "MIC Staphylococcus aureus (GC 4545)", "setting": "Staphylococcus sp.", "value": 32, "unit": "µg/mL"},
      {"measurement": "MIC Staphylococcus aureus (GC 4545)", "setting": "Staphylococcus sp.; [2]", "value": 32, "unit": "µg/mL"},
      {"measurement": "MIC Staphylococcus haemolyticus (GC 4546)", "setting": "Staphylococcus sp.; strain GC 4546, broth dilution, 18 hours at 35° C.", "value": 32, "unit": "µg/mL"},
      {"measurement": "MIC Coagulase Negative Staphylococcus (GC 4547)", "setting": "Staphylococcus sp.; strain GC 4547, broth dilution, 18 hours at 35° C.", "value": 32, "unit": "µg/mL"},
      {"measurement": "MIC Coagulase Negative Staphylococcus (GC 4548)", "setting": "Staphylococcus sp.; strain GC 4548, broth dilution, 18 hours at 35° C.", "value": 32, "unit": "µg/mL"},
      {"measurement": "MIC Coagulase Negative Staphylococcus (GC 4549)", "setting": "Staphylococcus sp.; strain GC 4549, broth dilution, 18 hours at 35° C.", "value": 32, "unit": "µg/mL"},
      {"measurement": "MIC Coagulase Negative Staphylococcus (GC 4551)", "setting": "Staphylococcus sp.; strain GC 4551, broth dilution, 18 hours at 35° C.", "value": 32, "unit": "µg/mL"},
      {"measurement": "MIC Coagulase Negative Staphylococcus (GC 6257)", "setting": "Staphylococcus sp.; strain GC 6257, broth dilution, 18 hours at 35° C.", "value": 32, "unit": "µg/mL"},
      {"measurement": "MIC Streptococcus agalactiae (GC 4564)", "setting": "Streptococcus sp.", "value": 1, "unit": "µg/mL"},
      {"measurement": "MIC Streptococcus pneumoniae (GC 1894)", "setting": "Streptococcus sp.", "value": 0.12, "unit": "µg/mL"},
      {"measurement": "MIC Streptococcus pneumoniae (GC 4565)", "setting": "Streptococcus sp.", "value": 0.25, "unit": "µg/mL"},
      {"measurement": "MIC Streptococcus pneumonine (ATCC 6301)", "setting": "Streptococcus sp.", "value": 0.25, "unit": "µg/mL"},
      {"measurement": "MIC Streptococcus pyogenes (GC 4563)", "setting": "Streptococcus sp.", "value": 0.5, "unit": "µg/mL"}
    ]}
  ]
}
